We go through 13 compounds from US11186572B2, “Bacterial glutaminyl cyclases and inhibitors thereof for use in the treatment of periodontitis” (Fraunhofer-Gesellschaft zur Forderung der Angewandten …, priority 2016, dated 2021).

The subject of one assay is P. intermedia ATCC 25611. As to the kind of experiment: MIC/MBC, cultivation in 2-fold dilution series. The format is cell-based. As to conditions: Prevotella intermedia, ATCC25611, P.i. ATCC 25611; for MIC: lowest concentration without visible growth (turbidity); for MBC: no growth of subcultivation or reduction by 99.9%. The source says: (§1) Bacteria expressing PgQC, TfQC and PiQC, namely P. gingivalis ATCC 33277, P. gingivalis M5-1-2, T. forsythia ATCC 42077, and P. intermedia ATCC 25611 were cultivated in the presence of compounds MWT-S-00275, MWT-S-00431, MWT-S-00441 and doxycycline in 2-fold dilution series. […]

The subject of a further assay is P. gingivalis M5-1-2. As to the kind of experiment: MIC/MBC, cultivation in 2-fold dilution series. The class given is cell-based. The conditions noted are these: Porphyromonas gingivalis, M512, P.g. M5-1-2; for MIC: lowest concentration without visible growth (turbidity); for MBC: no growth of subcultivation or reduction by 99.9%.
Excerpt: as §1

A further assay relates to T. forsythia ATCC 42077. As to the kind of experiment: MIC/MBC, cultivation in 2-fold dilution series. The format is cell-based. As to conditions: Tannerella forsythia, ATCC42077, T.f. ATCC 42077; for MIC: lowest concentration without visible growth (turbidity); for MBC: no growth of subcultivation or reduction by 99.9%.
Excerpt: as §1

In a further assay the test system is P. gingivalis ATCC 33277. As to the kind of experiment: MIC/MBC, cultivation in 2-fold dilution series. The conditions noted are these: Porphyromonas gingivalis, ATCC33277, P.g. ATCC 33277; for MIC: lowest concentration without visible growth (turbidity); for MBC: no growth of subcultivation or reduction by 99.9%. The format is cell-based.
Excerpt: as §1

The test system of assay [1] is bacterial QC (PgQC, PiQC, TfQC). As to the kind of experiment: Inhibition of bacterial QC by metal chelators (fluorometric activity assay). The format is biochemical, P. gingivalis, P. intermedia, T. forsythia. As to conditions: 250 μM H-Gln-AMC, increasing chelator concentrations, approx. 5 nM bacQC, 30° C.; all three bacterial QC (FIG. 7). On the procedure:
The fluorometrically activity assay was carried out as described above, except the presence of 1% (v/v) DMSO in the case of 1,10-phenanthroline or dipicolinic acid. Finally the residual bacQC activity was determined at steady state whereas bacQC without Chelators and +/−1% DMSO served as positive control.
The reaction was initiated by adding approximately 5 nM bacQC. Black bars indicate residual PgQC activity, striped bars represent residual PiQC activity, and white bars display residual TfQC activity. All determinations were carried out at 30° C. as described above.

For another assay, the target named is T1, PgQC (Porphyromonas gingivalis, UniProt Q7MT37).
T1 construct: Ki; RA (average residual QC activity of PgQC); other: c = 1 μM; other: c = 1.5 μM; other: c = 10 μM; other: c = 100 μM; other: c = 12 μM; RA; fused on or other part: N-terminal His tag from pET28a(+), cleaved off by thrombin before the enzymatic characterisation
As to the kind of experiment: biochemical. Also noted: species or system P. gingivalis. The conditions noted are these: for remaining activity at 1 µM / remaining activity at 10 µM / remaining activity at 100 µM: read-out: RA (average residual QC activity of PgQC). On the procedure: The assay consists of varying concentration of the fluorogenic substrate and 0.5 U pyroglutaminyl aminopeptidase in 50 mM Tris-HCl, 50 mM NaCl at pH 8.0. After 10 minute incubation time at 30° C. reaction was initiated by addition of bacQC to a final volume of 125 μl reaction mixture. […] All determinations were carried out in 96 well microtiter plates (Fisher Scientific) at 30° C. using the FluoStar Optima (BMG Labtech).
For inhibitor testing, the sample composition was the same as described above, except for the addition of the putative inhibitory compound. […] (∘) represents reaction without inhibitor. Determinations were carried out in 50 mM Tris-HCl, 50 mM NaCl pH 8.0 and 1% (v/v) DMSO at 30° C.
RA refers to the average residual QC activity of PgQC measured in the presence of a concentration c of the respective compound. Ki refers to the average Ki values measured as described above, and Std(Ki) refers to the standard deviation of Ki.

[2] abbreviates: inhibition of PgQC, H-Gln-AMC, 50 mM Tris-HCl, 50 mM NaCl pH 8.0, 30° C., read-out: Ki (average).

SMILES strings stand for the structures. ≈ marks a conversion by molar mass, not a printed value. Entries after “also recorded” stand apart in the source; their conditions may differ. Where two headings read alike, the source gives them in different places.

As usually defined, the MIC is the lowest concentration found to suppress growth. Low readings indicate a more susceptible organism, high ones a less susceptible organism. The term MBC denotes the smallest concentration meeting the test's criterion for killing. A low value points to more potent killing. Regarding `C[C@H]1c2cccc(O)c2C(=O)C2=C(O)[C@]3(O)C(=O)C(C(N)=O)=C(O)[C@@H](N(C)C)[C@@H]3[C@@H](O)[C@@H]21` [Doxy, Doxycycline, reference compound], the MIC against P. intermedia ATCC 25611, in the assay with P. gingivalis M5-1-2, against T. forsythia ATCC 42077 and in the assay on P. gingivalis ATCC 33277 was no more than 3130 µg/mL each time. In addition, the minimum bactericidal concentration (MBC) in the assay on P. intermedia ATCC 25611 turned out to be 12500 µg/mL (≈ 28.1 mM); against T. forsythia ATCC 42077, 6250 µg/mL (≈ 14.1 mM); against P. gingivalis ATCC 33277, 50000 µg/mL (≈ 113 mM).
Consider `O=C(O)CN(CCN(CC(=O)O)CC(=O)O)CC(=O)O` [EDTA], for which the “inhibitory effect on bacQC activity (residual activity)” value in assay [1] is on record as “does not influence bacQC activity”.
The Ki is a measure of affinity in units of concentration, obtained from inhibition or displacement. With `CC1(C)c2nc[nH]c2CCN1Cc1cc(F)c(F)c(F)c1` [MWT-S-00275, 4,4-Dimethyl-5-[(3,4,5-trifluorophenyl)methyl]-6,7-dihydro-3H-imidazo[4,5-c]pyridine], the minimum inhibitory concentration (MIC) stood at 500 µg/mL (≈ 1.69 mM) against P. intermedia ATCC 25611, 500 µg/mL (≈ 1.69 mM) with P. gingivalis M5-1-2, 250 µg/mL (≈ 0.847 mM) with T. forsythia ATCC 42077 and 500 µg/mL (≈ 1.69 mM) in the assay on P. gingivalis ATCC 33277. The MBC was 500 µg/mL (≈ 1.69 mM) against P. intermedia ATCC 25611, 1000 µg/mL (≈ 3.39 mM) in the assay with P. gingivalis M5-1-2, 250 µg/mL (≈ 0.847 mM) in the assay with T. forsythia ATCC 42077 and 1000 µg/mL (≈ 3.39 mM) in the assay with P. gingivalis ATCC 33277. On PgQC (Ki (average), inhibition of PgQC, H-Gln-AMC, 50 mM Tris-HCl, 50 mM NaCl pH 8.0, 30° C.), this compound returned an inhibitory constant (Ki) of 143 nM. Besides, the remaining activity at 1 µM on PgQC was 22%.
Take `O=C(c1cc(Cl)cc(Cl)c1)N1CCc2[nH]cnc2C1` [MWT-S-00431, (3,5-Dichlorophenyl)(1,4,6,7-tetrahydro-5H-imidazo[4,5-c]pyridin-5-yl)methanone]: the minimum inhibitory concentration (MIC) with P. intermedia ATCC 25611 came out at 125 µg/mL (≈ 0.422 mM); with P. gingivalis M5-1-2 it was 1000 µg/mL (≈ 3.38 mM); in the assay on T. forsythia ATCC 42077, 1000 µg/mL (≈ 3.38 mM); against P. gingivalis ATCC 33277 it was 1000 µg/mL (≈ 3.38 mM). The MBC in the assay on P. intermedia ATCC 25611 was found to be 500 µg/mL (≈ 1.69 mM); with P. gingivalis M5-1-2, 2000 µg/mL (≈ 6.75 mM); in the assay on T. forsythia ATCC 42077 it was 2000 µg/mL (≈ 6.75 mM); with P. gingivalis ATCC 33277 it was 2000 µg/mL (≈ 6.75 mM). In addition, the Ki is 104 nM on PgQC (Ki, Table 3 fit, competitive inhibition, 1% (v/v) DMSO, pH 8.0, 30° C.); 104 ± 3.31 nM at PgQC (Ki, exemplary determination (FIG. 4), 1% (v/v) DMSO, pH 8.0, 30° C.); 100 nM at PgQC (setting [2]). Also, on PgQC, the remaining activity at 10 µM stood at 3%.
As for `CCCOc1cccc(C(=O)N2CCc3[nH]cnc3C2)c1` [MWT-S-00432, (3-Propoxyphenyl)(1,4,6,7-tetrahydro-5H-imidazo[4,5-c]pyridin-5-yl)methanone], the Ki at PgQC (setting [2]) is 780 nM. Further, at PgQC, the remaining activity at 100 µM turned out to be 2%.
For the compound `O=C(c1cccc(-c2ccccc2)c1)N1CCc2[nH]cnc2C1` [MWT-S-00433, [1,1′-Biphenyl]-3-yl(1,4,6,7-tetrahydro-5H-imidazo[4,5-c]pyridin-5-yl)methanone], at PgQC (setting [2]), the inhibition constant (Ki) worked out at 547 nM. For the same compound, at PgQC, the remaining activity at 1 µM turned out to be 47%.
Consider `O=C(c1ccc2c(c1)OCCO2)N1CCc2[nH]cnc2C1` [MWT-S-00434, (2,3-Dihydrobenzo[b][1,4]dioxin-6-yl)(1,4,6,7-tetrahydro-5H-imidazo-[4,5-c]pyridin-5-yl)methanone], for which the Ki on PgQC (setting [2]) turned out to be 1340 nM. Besides, the remaining activity at 100 µM on PgQC was determined as 3%.
With `O=C(c1cc(F)c(F)c(F)c1)N1CCc2[nH]cnc2C1` [MWT-S-00435, (1,4,6,7-Tetrahydro-5H-imidazo[4,5-c]pyridin-5-yl)(3,4,5-trifluoro-phenyl)methanone], the inhibition constant Ki at PgQC (setting [2]) amounted to 904 nM. Moreover, at PgQC, the remaining activity at 10 µM amounted to 16%.
For the compound `COc1cc(C(=O)N2CCc3[nH]cnc3C2)ccc1F` [MWT-S-00436, (4-Fluoro-3-methoxyphenyl)(1,4,6,7-tetrahydro-5H-imidazo[4,5-c]pyridin-5-yl)methanone], the inhibition constant Ki at PgQC (setting [2]) is 1240 nM. Further, the remaining activity at 100 µM on PgQC was 3%.
As to `O=C(c1ccc2ccccc2c1)N1CCc2[nH]cnc2C1` [MWT-S-00440, Naphthalen-2-yl(1,4,6,7-tetrahydro-5H-imidazo[4,5-c]pyridin-5-yl)methanone], the Ki on PgQC (setting [2]) was determined as 126 nM. Moreover, the remaining activity at 10 µM on PgQC was determined as 4%.
With `COc1cc(Cl)cc(C(=O)N2CCc3[nH]cnc3C2)c1` [MWT-S-00441, (3-Chloro-5-methoxyphenyl)(1,4,6,7-tetrahydro-5H-imidazo[4,5-c]pyridin-5-yl)methanone], the MIC in the assay with P. intermedia ATCC 25611 worked out at 63 µg/mL (≈ 0.216 mM); against P. gingivalis M5-1-2, 1000 µg/mL (≈ 3.43 mM); with T. forsythia ATCC 42077, 2000 µg/mL (≈ 6.86 mM); against P. gingivalis ATCC 33277, 1000 µg/mL (≈ 3.43 mM). Moreover, the MBC against P. intermedia ATCC 25611 is 63 µg/mL (≈ 0.216 mM); against P. gingivalis M5-1-2 it was greater than 2000 µg/mL; with T. forsythia ATCC 42077 it was 2000 µg/mL (≈ 6.86 mM); against P. gingivalis ATCC 33277, 2000 µg/mL (≈ 6.86 mM). For the same compound, the inhibition constant (Ki) at PgQC (setting [2]) was found to be 87 nM. Moreover, the remaining activity at 1 µM at PgQC came out at 17%.
As for `O=C(O)c1cccc(C(=O)O)n1` [dipicolinic acid], the “inhibitory effect on bacQC activity (residual activity)” value in assay [1] is listed as “strong inhibitory activity”.
Consider `c1cnc2c(c1)ccc1cccnc12` [phenanthroline, 1,10-phenanthroline], for which, in assay [1], the “inhibitory effect on bacQC activity (residual activity)” value is on record as “strong inhibitory activity; also recorded: inhibited QC activity already at low mM range”.
